For data set [1], the target named is T1, Protein-tyrosine kinase 6 (Homo sapiens, UniProt Q13882). As to the kind of experiment: Inhibition of GST-tagged PTK6 (unknown origin) assessed as phosphorylated tyrosines after 20 mins by ELISA. On the technique in general: An ELISA detects its analyte on a solid surface through an enzyme-linked reagent.
Data set [2] addresses T1, Protein-tyrosine kinase 6. As to the kind of experiment: Inhibition of PTK6 (unknown origin) expressed in HEK293 cells assessed as decrease in tyrosine phosphorylation by chemiluminescence assay. It counts as cell-based.
The target of data set [3] is Proto-oncogene tyrosine-protein kinase Src (Homo sapiens, UniProt P12931). Put plainly: Inhibition of Src (unknown origin) expressed in HEK293 cells assessed as decrease in phosphorylation by chemiluminescence assay. It counts as cell-based.
For data set [4], the target named is Tyrosine-protein kinase Fyn (Homo sapiens, UniProt P06241). As to the kind of experiment: Inhibition of Fyn (unknown origin) expressed in HEK293 cells assessed as decrease in phosphorylation by chemiluminescence assay. In kind it is cell-based.
Data set [5] deals with T2, Cytoplasmic tyrosine-protein kinase BMX (Homo sapiens, UniProt P51813).
T2 sequence (P51813 whole entry): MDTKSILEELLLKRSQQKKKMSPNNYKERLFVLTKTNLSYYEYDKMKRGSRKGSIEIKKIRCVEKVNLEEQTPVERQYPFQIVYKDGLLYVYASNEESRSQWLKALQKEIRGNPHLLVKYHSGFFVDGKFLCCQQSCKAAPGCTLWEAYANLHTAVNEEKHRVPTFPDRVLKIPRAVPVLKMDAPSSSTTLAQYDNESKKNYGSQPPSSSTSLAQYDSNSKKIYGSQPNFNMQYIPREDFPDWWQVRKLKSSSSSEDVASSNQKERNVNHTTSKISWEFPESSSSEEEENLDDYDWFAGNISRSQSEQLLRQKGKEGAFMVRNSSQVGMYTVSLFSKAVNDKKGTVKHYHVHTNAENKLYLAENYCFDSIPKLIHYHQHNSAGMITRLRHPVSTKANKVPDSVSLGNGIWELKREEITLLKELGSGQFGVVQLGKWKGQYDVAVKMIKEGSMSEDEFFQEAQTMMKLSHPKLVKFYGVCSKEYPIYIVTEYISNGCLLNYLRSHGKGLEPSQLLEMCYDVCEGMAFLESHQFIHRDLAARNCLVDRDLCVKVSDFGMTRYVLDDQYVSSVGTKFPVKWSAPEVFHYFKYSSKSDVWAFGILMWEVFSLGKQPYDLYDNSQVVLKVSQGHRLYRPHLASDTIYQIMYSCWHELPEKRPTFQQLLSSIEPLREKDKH
Put plainly: Inhibition of Bmx (unknown origin) expressed in HEK293 cells assessed as decrease in phosphorylation by chemiluminescence assay. It counts as cell-based.

Data set [6] relates to HFF. As to the kind of experiment: Cytotoxicity against human foreskin fibroblast up to 100 uM after 24 hrs by MTT assay. It counts as cell-based. (Tetrazolium dyes change colour on reduction, which living cells bring about.)
Data set [7] concerns the target Epidermal growth factor receptor (Homo sapiens, UniProt P00533).
Description: Inhibition of EGFR (unknown origin) expressed in HEK293 cells assessed as decrease in phosphorylation by chemiluminescence assay
The test system of data set [8] is HFF. Put plainly: Cytotoxicity against human foreskin fibroblast after 24 hrs by MTT assay. It counts as cell-based.

Where only a bound is given, the exact number is not on record here.

This note sets out measurements from ChEMBL document CHEMBL3352553, “Discovery of (E)-5-(benzylideneamino)-1H-benzo[d]imidazol-2(3H)-one derivatives as inhibitors for PTK6” (Bioorg Med Chem Lett, 2014).

Chain of Tyrosine-protein kinase Fyn (P06241 whole entry): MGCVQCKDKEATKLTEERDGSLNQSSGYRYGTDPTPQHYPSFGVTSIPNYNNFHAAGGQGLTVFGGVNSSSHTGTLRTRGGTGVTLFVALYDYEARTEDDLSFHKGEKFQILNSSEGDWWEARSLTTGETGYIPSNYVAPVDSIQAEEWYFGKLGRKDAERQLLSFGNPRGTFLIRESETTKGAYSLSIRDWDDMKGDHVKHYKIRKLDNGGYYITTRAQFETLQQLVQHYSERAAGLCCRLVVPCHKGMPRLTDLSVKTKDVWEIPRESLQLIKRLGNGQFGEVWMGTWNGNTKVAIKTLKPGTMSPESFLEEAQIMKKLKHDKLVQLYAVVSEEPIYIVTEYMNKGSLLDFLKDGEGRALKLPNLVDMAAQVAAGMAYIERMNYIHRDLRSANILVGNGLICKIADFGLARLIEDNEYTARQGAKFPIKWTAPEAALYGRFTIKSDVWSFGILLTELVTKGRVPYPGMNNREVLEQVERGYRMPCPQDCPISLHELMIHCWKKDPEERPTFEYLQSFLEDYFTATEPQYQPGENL
T1 sequence (Q13882 whole entry): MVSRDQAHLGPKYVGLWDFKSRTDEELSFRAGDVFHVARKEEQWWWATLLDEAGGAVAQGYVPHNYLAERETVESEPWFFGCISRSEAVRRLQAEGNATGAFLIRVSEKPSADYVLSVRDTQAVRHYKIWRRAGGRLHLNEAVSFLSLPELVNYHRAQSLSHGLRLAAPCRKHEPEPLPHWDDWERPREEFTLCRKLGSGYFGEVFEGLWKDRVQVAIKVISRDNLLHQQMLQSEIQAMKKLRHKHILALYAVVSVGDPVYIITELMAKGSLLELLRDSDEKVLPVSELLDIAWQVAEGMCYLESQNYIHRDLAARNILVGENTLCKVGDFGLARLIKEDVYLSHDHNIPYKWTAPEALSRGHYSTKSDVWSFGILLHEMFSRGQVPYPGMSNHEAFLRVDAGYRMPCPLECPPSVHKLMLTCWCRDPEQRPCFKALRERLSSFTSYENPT
Chain of Proto-oncogene tyrosine-protein kinase Src (P12931 2-536 limits assumed): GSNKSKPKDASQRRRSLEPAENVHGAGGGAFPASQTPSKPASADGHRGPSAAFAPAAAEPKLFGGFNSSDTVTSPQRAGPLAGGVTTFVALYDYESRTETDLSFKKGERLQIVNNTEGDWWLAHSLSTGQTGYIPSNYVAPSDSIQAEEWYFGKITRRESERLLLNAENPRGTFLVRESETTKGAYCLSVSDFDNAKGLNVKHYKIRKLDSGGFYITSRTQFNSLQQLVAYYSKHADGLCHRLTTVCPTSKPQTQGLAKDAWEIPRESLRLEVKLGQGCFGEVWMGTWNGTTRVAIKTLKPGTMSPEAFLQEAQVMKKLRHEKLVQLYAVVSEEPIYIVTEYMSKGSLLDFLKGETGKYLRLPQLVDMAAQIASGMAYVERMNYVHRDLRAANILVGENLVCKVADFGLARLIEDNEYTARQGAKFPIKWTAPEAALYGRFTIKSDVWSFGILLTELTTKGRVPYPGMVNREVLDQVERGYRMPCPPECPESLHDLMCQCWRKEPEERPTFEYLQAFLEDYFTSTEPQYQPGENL
Chain of Epidermal growth factor receptor (P00533 whole entry): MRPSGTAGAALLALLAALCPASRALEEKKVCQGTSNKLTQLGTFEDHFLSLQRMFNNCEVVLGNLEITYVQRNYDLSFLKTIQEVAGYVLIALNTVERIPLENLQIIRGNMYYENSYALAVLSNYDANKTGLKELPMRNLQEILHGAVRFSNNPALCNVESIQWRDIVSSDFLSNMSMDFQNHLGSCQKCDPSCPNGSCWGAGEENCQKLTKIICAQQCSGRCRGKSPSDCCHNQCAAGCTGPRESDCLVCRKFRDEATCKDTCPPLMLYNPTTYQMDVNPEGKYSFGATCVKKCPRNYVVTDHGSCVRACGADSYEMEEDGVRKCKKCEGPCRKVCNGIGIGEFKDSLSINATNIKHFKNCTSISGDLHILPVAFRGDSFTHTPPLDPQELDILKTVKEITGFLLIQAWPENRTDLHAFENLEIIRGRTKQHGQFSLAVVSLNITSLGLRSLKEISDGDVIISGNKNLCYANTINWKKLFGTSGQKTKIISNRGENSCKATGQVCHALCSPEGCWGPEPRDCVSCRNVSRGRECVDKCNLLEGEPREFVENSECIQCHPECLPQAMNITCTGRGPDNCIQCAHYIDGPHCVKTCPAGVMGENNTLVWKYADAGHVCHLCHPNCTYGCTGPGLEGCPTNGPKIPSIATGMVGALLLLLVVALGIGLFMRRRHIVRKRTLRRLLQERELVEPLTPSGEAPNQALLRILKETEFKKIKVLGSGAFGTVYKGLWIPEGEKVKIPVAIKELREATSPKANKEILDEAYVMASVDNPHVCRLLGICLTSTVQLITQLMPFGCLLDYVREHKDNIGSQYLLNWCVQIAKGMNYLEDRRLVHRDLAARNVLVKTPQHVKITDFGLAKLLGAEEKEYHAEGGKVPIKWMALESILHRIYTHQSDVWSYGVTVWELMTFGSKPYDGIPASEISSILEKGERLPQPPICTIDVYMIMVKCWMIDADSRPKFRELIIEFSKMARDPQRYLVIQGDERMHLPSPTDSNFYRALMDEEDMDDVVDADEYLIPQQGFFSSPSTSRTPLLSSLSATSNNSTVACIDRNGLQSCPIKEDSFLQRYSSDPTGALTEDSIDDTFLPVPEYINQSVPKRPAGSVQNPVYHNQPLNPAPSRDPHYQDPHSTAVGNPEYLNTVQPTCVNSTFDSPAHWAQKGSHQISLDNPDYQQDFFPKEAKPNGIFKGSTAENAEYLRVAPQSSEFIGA

In general, IC50 refers to the concentration at which inhibition is half-maximal. In the case of `O=c1[nH]c2ccc(/N=C/c3cc(Br)ccc3O)cc2[nH]1`, the IC50 in data set [1] was 1.9 µM; in data set [2], above 100 µM.
`O=c1c(-c2ccc(O)cc2)coc2cc(O)cc(O)c12` [GENISTEIN]: the IC50 is above 100 µM in data set [3], 58.2 µM in data set [4] and 68 µM in data set [5].
Turning to `CCOc1cc(Cl)c(Cl)c(/C=N/c2ccc3[nH]c(=O)[nH]c3c2)c1O`, the IC50 in data set [1] amounted to 1.29 µM; in data set [2] it was 3.48 µM.
With `COc1cc(Br)c(Br)c(CNc2ccc3[nH]c(=O)[nH]c3c2)c1O`, in data set [1], the IC50 was above 10 µM.
In the case of `CCOc1cc(Br)c(Br)c(/C=N/c2ccc3[nH]c(=O)[nH]c3c2)c1O`, the IC50 in data set [1] was 0.52 µM; in data set [2], 1.6 µM; in data set [3] it was above 100 µM; in data set [4], 68.5 µM; in data set [5], 42.3 µM; in data set [7], 76.7 µM. Also, the Activity entry with HFF [6] is reported as “Non-toxic”.
Turning to `COc1cccc(/C=N/c2ccc3[nH]c(=O)[nH]c3c2)c1O`, in data set [1], the IC50 was above 10 µM.
In the case of `CCOc1cc(Br)cc(/C=N/c2ccc3[nH]c(=O)[nH]c3c2)c1O`, the IC50 in data set [1] was 5.83 µM; in data set [2], 23.5 µM.
For the compound `COc1cc(Br)c(Br)c(/C=N/c2ccc3scnc3c2)c1O`, the IC50 in data set [1] is 1.3 µM; in data set [2], 4.61 µM.
Take `COc1cc(Br)c(Br)c(/C=N/c2ccc3[nH]ccc3c2)c1O`: the IC50 stood at 0.27 µM in data set [1] and 3.49 µM in data set [2].
On to `CCOc1cc(Br)c(Br)c(/C=N/c2ccc3[nH]ccc3c2)c1O`, for which the figures for the IC50 in data set [1] and in data set [2] were 0.36 µM and 7.58 µM, respectively.
Turning to `O=c1[nH]c2ccc(/N=C/c3cc(Br)cc(Br)c3O)cc2[nH]1`, the values for the IC50 in data set [1] and in data set [2] were 5.6 µM and 49 µM, respectively.
Regarding `O=c1[nH]c2ccc(/N=C/c3ccccc3O)cc2[nH]1`, the figures for the IC50 in data set [1] and in data set [2] were 2 µM and above 100 µM, respectively.
Take `O=c1[nH]c2ccc(/N=C/c3ccccc3)cc2[nH]1`: the IC50 in data set [1] was above 10 µM.
In the case of `COc1cc(Cl)cc(/C=N/c2ccc3[nH]c(=O)[nH]c3c2)c1O`, the IC50 in data set [1] was 1.68 µM; in data set [2], 74 µM.
With `CCOc1cc(Br)c(Br)c(/C=N/c2ccc3scnc3c2)c1O`, the IC50 came to 1.17 µM in data set [1] and 2.54 µM in data set [2].
In the case of `O=c1[nH]c2ccc(/N=C/c3cc(Cl)ccc3O)cc2[nH]1`, the values for the IC50 in data set [1] and in data set [2] were 1.41 µM and above 100 µM, respectively.
In the case of `O=c1[nH]c2ccc(/N=C/c3ccc(O)cc3O)cc2[nH]1`, the IC50 in data set [1] is above 10 µM.
With `COc1cc(Br)c(Br)c(/C=N/c2ccc3[nH]cnc3c2)c1O`, the IC50 came to 0.2 µM in data set [1] and 5.52 µM in data set [2].
Regarding `O=c1[nH]c2ccc(/N=C/c3c(O)cccc3Br)cc2[nH]1`, the IC50 in data set [1] stood at 1.35 µM; in data set [2] it was 24.5 µM.
As to `CCOc1cc(Cl)cc(/C=N/c2ccc3[nH]c(=O)[nH]c3c2)c1O`, the IC50 in data set [1] came out at 1.99 µM; in data set [2] it was 51.2 µM.
Turning to `COc1ccc(/C=N/c2ccc3[nH]c(=O)[nH]c3c2)c(O)c1`, the IC50 in data set [1] is above 10 µM.
On to `COc1ccc(Br)cc1/C=N/c1ccc2[nH]c(=O)[nH]c2c1`, for which the IC50 was 17.1 µM in data set [1] and above 100 µM in data set [2].
As for `COc1cc(Br)cc(/C=N/c2ccc3[nH]c(=O)[nH]c3c2)c1O`, the IC50 was found to be 4.73 µM in data set [1] and 52.4 µM in data set [2].
With `COc1ccc(Br)c(/C=N/c2ccc3[nH]c(=O)[nH]c3c2)c1O`, the values for the IC50 in data set [1] and in data set [2] were 3.9 µM and 16.6 µM, respectively.
For `COc1cc(I)cc(/C=N/c2ccc3[nH]c(=O)[nH]c3c2)c1O` the same measures were 4.98 µM and 58.1 µM.
For `O=c1[nH]c2ccc(/N=C/c3c(O)c(Br)cc(Br)c3Br)cc2[nH]1` the same measures were 0.41 µM and 11.8 µM.
As for `CCOc1cc(Br)c(Br)c(/C=N/c2ccc3[nH]cnc3c2)c1O`, the figures for the IC50 in data set [1] and in data set [2] were 0.13 µM and 4.71 µM, respectively.
Regarding `CCOc1cccc(/C=N/c2ccc3[nH]c(=O)[nH]c3c2)c1O`, the IC50 in data set [1] is above 10 µM.
Take `COc1cc(Br)cc(/C=N/c2ccc3[nH]c(=O)[nH]c3c2)c1OC`: in data set [1], the IC50 was above 10 µM.
For the compound `N#C/C(=C\c1c[nH]c2ccccc12)C(=O)c1ccc(O)c(O)c1`, the IC50 in data set [1] turned out to be 2.32 µM; in data set [2] it was 53.2 µM.
As for `CCOc1cc(Br)c(Br)c(CNc2ccc3[nH]c(=O)[nH]c3c2)c1O`, the IC50 in data set [1] stood at 4.79 µM.
Take `COc1cc(Br)c(Br)c(/C=N/c2ccc3[nH]c(=O)[nH]c3c2)c1O`: the IC50 is 0.12 µM in data set [1]; 1.46 µM in data set [2]; above 100 µM in data set [3]; 38.7 µM in data set [4]; 38.6 µM in data set [5]; 88.7 µM in data set [7]. For the same compound, the Activity result with HFF [6] and in the data set with HFF [8] was “Toxic” in each case.
